Read-outs that look alike come from different tables or passages of the source.
Tests used:
[1] = biological target: T1, human adenosine A1 receptor (Homo sapiens, UniProt P30542); assay: Inhibition binding assay, human adenosine A1 receptor membranes, [3H]DPCPX; conditions: 1 nM [3H]DPCPX, 25° C., 1 h; IC50 converted to Ki with Cheng-Prusoff; read-out: A1 pKi (converted)
T1 construct: expressed in transfected cells; host or cells: HEK293 cells infected with BacMam (the same paragraph also labels the preparation CHO-hA1)
T1 sequence (P30542 1-326): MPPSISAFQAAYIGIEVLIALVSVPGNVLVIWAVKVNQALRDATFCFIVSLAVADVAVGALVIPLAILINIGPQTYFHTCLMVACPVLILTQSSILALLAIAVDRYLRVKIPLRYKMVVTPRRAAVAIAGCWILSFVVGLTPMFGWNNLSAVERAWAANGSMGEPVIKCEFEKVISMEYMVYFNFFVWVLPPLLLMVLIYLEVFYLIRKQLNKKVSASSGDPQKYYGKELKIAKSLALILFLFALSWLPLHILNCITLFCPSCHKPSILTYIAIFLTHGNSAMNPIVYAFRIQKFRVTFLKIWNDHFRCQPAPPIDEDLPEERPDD
Procedure: (§1) Inhibition binding assays were performed using 0.2 μg of membranes prepared from HEK293 cells infected with BacMam human adenosine A2A receptor or 1.4 μg of membranes prepared from HEK293 cells infected with BacMam human adenosine A1 receptor. Membranes were incubated in 50 mM Tris-HCl (HEK293-hA2A; pH 7.4) or 50 mM Tris-HCl, 100 mM NaCl, 10 mM MgCl2 (CHO-hA1; pH 7.4) in the presence of varying concentrations of test compound and 1 nM [^3H]ZM241385 (HEK293-hA2A) or [^3H]DPCPX (CHO-hA1) at 25° C. for 1 h. The assay was then terminated by rapid filtration onto GF/B grade Unifilter plates using a TomTec cell harvester, followed by 5×0.5 ml washes with ddH2O. Nonspecific binding was defined in the presence of 1 μM CGS15943 (HEK293-hA2A) or 1 μM DPCPX (CHO-hA1). Bound radioactivity was determined by liquid scintillation counting and inhibition curves were analysed using a four-parameter logistic equation. IC50 values were converted to Ki values with the Cheng-Prusoff equation using a KD value derived from saturation binding studies.

[2] = biological target: T2, human adenosine A2A receptor (Homo sapiens, UniProt P29274); assay: Inhibition binding assay, human adenosine A2A receptor membranes, [3H]ZM241385; conditions: 1 nM [3H]ZM241385, HEK293-hA2A membranes, 25° C., 1 h, IC50 converted to Ki with Cheng-Prusoff
T2 construct: expressed in transfected cells; host or cells: HEK293 cells infected with BacMam
T2 sequence (P29274 whole entry): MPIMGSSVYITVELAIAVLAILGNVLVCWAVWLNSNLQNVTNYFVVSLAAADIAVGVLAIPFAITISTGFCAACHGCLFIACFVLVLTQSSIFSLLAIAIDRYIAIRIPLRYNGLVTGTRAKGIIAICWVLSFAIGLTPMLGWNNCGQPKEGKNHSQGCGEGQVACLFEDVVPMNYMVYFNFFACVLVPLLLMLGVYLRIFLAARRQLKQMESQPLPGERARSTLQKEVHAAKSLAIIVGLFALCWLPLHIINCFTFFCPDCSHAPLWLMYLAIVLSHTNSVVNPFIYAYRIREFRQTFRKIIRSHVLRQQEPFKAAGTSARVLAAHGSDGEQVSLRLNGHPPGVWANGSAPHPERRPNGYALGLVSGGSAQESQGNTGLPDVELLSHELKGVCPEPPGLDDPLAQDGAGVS
Procedure: as §1

Question: Which Ki [1] does the source give for `COc1cc(-c2c(-c3ccccc3)nc(N)n3c(=O)n(Cc4ccc(F)cn4)nc23)cc(C)n1` [Example 1-78, 5-amino-2-[(5-fluoro-2-pyridyl)methyl]-8-(2-methoxy-6-methyl-4-pyridyl)-7-phenyl-[1,2,4]triazolo[4,3-c]pyrimidin-3-one] here?
Answer: 158 nM

Question: What about the Ki ([2]; read-out: A2A pKi (converted)) of the same molecule?
Answer: 0.126 nM

Question: `Cc1cc(-c2c(-c3ccc(F)cc3)nc(N)n3c(=O)n(CCC(F)(F)F)nc23)cc(C)n1` [Example 2-33, 5-amino-8-(2,6-dimethyl-4-pyridyl)-7-(4-fluorophenyl)-2-(3,3,3-trifluoropropyl)-[1,2,4]triazolo[4,3-c]pyrimidin-3-one] was tested. Which Ki [1] did it give?
Answer: 631 nM

Question: And the Ki ([2]; read-out: A2A pKi (converted))?
Answer: 1.26 nM

Question: Which results are given for `C/C=C(/C)c1nc(N)n2c(=O)n(CCC(F)(F)F)nc2c1-c1cc(C)nc(C)c1` [Example 3-9, 5-amino-8-(2,6-dimethyl-4-pyridyl)-7-[(Z)-1-methylprop-1-enyl]-2-(3,3,3-trifluoropropyl)-[1,2,4]triazolo[4,3-c]pyrimidin-3-one]?
Answer: Ki [1]: > 3160 nM; Ki ([2]; read-out: A2A pKi (converted)): 398 nM

Question: For `Cc1cc(-c2c(-c3ccccc3)nc(N)n3c(=O)n(CCC4CCN(C)CC4)nc23)cc(C)n1` [Example 2-97, 5-amino-8-(2,6-dimethyl-4-pyridyl)-2-[2-(1-methyl-4-piperidyl)ethyl]-7-phenyl-[1,2,4]triazolo[4,3-c]pyrimidin-3-one], which Ki [1] is on record?
Answer: 631 nM

Question: And the Ki ([2]; read-out: A2A pKi (converted))?
Answer: 6.31 nM

Question: With `Cc1cc(-c2c(-c3ccccc3)nc(N)n3c(=O)n(Cc4ccc(O)cc4)nc23)cc(C)n1` [Example 1-4, 5-amino-8-(2,6-dimethyl-4-pyridyl)-2-[(4-hydroxyphenyl)methyl]-7-phenyl-[1,2,4]triazolo[4,3-c]pyrimidin-3-one] as the molecule, how does the Ki [1] read?
Answer: 501 nM

Question: And the Ki ([2]; read-out: A2A pKi (converted))?
Answer: 1.26 nM

Question: What does the source list for `Cc1cc(-c2c(N3CCCCC3)nc(N)n3c(=O)n(CCC(F)(F)F)nc23)cc(C)n1` [Example 3-2, 5-amino-8-(2,6-dimethyl-4-pyridyl)-7-(1-piperidyl)-2-(3,3,3-trifluoropropyl)-[1,2,4]triazolo[4,3-c]pyrimidin-3-one]?
Answer: Ki [1]: > 3160 nM; Ki ([2]; read-out: A2A pKi (converted)): 6.31 nM

Question: What does the source list for `COc1ncccc1Cn1nc2c(-c3cc(C)nc(C)c3)c(-c3ccccc3)nc(N)n2c1=O` [Example 1-28, 5-amino-8-(2,6-dimethyl-4-pyridyl)-2-[(2-methoxy-3-pyridyl)methyl]-7-phenyl-[1,2,4]triazolo[4,3-c]pyrimidin-3-one]?
Answer: Ki [1]: 63.1 nM; Ki ([2]; read-out: A2A pKi (converted)): 0.2 nM

Question: What does the source list for `Cc1cc(-c2c(-c3ccccc3)nc(N)n3c(=O)n(C[C@H]4CN(C(=O)OC(C)(C)C)CCN4C)nc23)cc(C)n1` [Example 2-84, tert-butyl (R)-3-((5-amino-8-(2,6-dimethylpyridin-4-yl)-3-oxo-7-phenyl-[1,2,4]triazolo[4,3-c]pyrimidin-2(3H)-yl)methyl)-4-methylpiperazine-1-carboxylate]?
Answer: Ki [1]: 316 nM; Ki ([2]; read-out: A2A pKi (converted)): 6.31 nM

Question: Which Ki [1] does the source give for `CCC(c1ccc(F)cn1)n1nc2c(-c3cc(C)nc(CO)c3)c(-c3ccccc3)nc(N)n2c1=O` (single isomer, unassigned) [1-46 iso-2, 5-amino-2-[1-(5-fluoro-2-pyridyl)propyl]-8-[2-(hydroxymethyl)-6-methyl-4-pyridyl]-7-phenyl-[1,2,4]triazolo[4,3-c]pyrimidin-3-one] here?
Answer: > 2510 nM

Question: And the Ki ([2]; read-out: A2A pKi (converted))?
Answer: 100 nM

Question: How did the Ki [1] turn out when `Cc1cc(-c2c(-c3ccccc3)nc(N)n3c(=O)n(CCN4CCCCCC4c4cccn4C)nc23)cc(C)n1` (stereo not drawn) [Example 1-96, 5-amino-8-(2,6-dimethyl-4-pyridyl)-2-[2-[2-(1-methylpyrrol-2-yl)azepan-1-yl]ethyl]-7-phenyl-[1,2,4]triazolo[4,3-c]pyrimidin-3-one] was run?
Answer: 251 nM

Question: What about the Ki ([2]; read-out: A2A pKi (converted)) of the same molecule?
Answer: 3.98 nM

Question: Which Ki [1] does the source give for `CCC1(C)CC1Cn1nc2c(-c3cc(C)nc(C)c3)c(-c3ccccc3)nc(N)n2c1=O` (stereo not drawn) [Example 2-27, 5-amino-8-(2,6-dimethyl-4-pyridyl)-2-[(2-ethyl-2-methyl-cyclopropyl)methyl]-7-phenyl-[1,2,4]triazolo[4,3-c]pyrimidin-3-one] here?
Answer: 31.6 nM

Question: And the Ki ([2]; read-out: A2A pKi (converted))?
Answer: 0.631 nM

Question: With `Cc1cc(-c2c(-c3ccccc3)nc(N)n3c(=O)n(CCN4C5CCCC4CC5)nc23)cc(C)n1` [Example 2-103, 5-amino-2-[2-(8-azabicyclo[3.2.1]octan-8-yl)ethyl]-8-(2,6-dimethyl-4-pyridyl)-7-phenyl-[1,2,4]triazolo[4,3-c]pyrimidin-3-one] as the molecule, how does the Ki [1] read?
Answer: 1000 nM

Question: What about the Ki ([2]; A2A pKi) of the same molecule?
Answer: 6.31 nM

Question: Which Ki [1] does the source give for `Cc1cc(-c2c(-c3ccc(C#N)cc3)nc(N)n3c(=O)n(CCC(F)(F)F)nc23)cc(C)n1` [Example 2-36, 4-[5-amino-8-(2,6-dimethyl-4-pyridyl)-3-oxo-2-(3,3,3-trifluoropropyl)-[1,2,4]triazolo[4,3-c]pyrimidin-7-yl]benzonitrile] here?
Answer: > 3160 nM

Question: And the Ki ([2]; read-out: A2A pKi (converted))?
Answer: 20 nM

Question: How did the Ki [1] turn out when `Cc1cc(-c2c(-c3ccccc3)nc(N)n3c(=O)n(Cc4ccncc4)nc23)cc(C)n1` [Example 1-12, 5-amino-8-(2,6-dimethyl-4-pyridyl)-7-phenyl-2-(4-pyridylmethyl)-[1,2,4]triazolo[4,3-c]pyrimidin-3-one] was run?
Answer: 794 nM

Question: What about the Ki ([2]; read-out: A2A pKi (converted)) of the same molecule?
Answer: 10 nM

Question: With `Cc1cc(-c2c(-c3ccccc3)nc(N)n3c(=O)n(CC4CCCCO4)nc23)cc(CO)n1` (single isomer, unassigned) [Example 2-91-iso-1, 5-amino-8-[2-(hydroxymethyl)-6-methyl-4-pyridyl]-7-phenyl-2-(tetrahydropyran-2-ylmethyl)-[1,2,4]triazolo[4,3-c]pyrimidin-3-one] as the molecule, how does the Ki [1] read?
Answer: 631 nM

Question: What about the Ki ([2]; read-out: A2A pKi (converted)) of the same molecule?
Answer: 1.26 nM

Question: How did the Ki [1] turn out when `Cc1cc(-c2c(-c3ccccc3)nc(N)n3c(=O)n(CCCn4ccccc4=O)nc23)cc(C)n1` [Example 2-112, 5-amino-8-(2,6-dimethylpyridin-4-yl)-2-(3-(2-oxopyridin-1(2H)-yl)propyl)-7-phenyl-[1,2,4]triazolo[4,3-c]pyrimidin-3(2H)-one] was run?
Answer: 200 nM

Question: What about the Ki ([2]; read-out: A2A pKi (converted)) of the same molecule?
Answer: 3.16 nM

Question: With `Cc1cc(-c2c(-c3ccccc3)nc(N)n3c(=O)n(CC45CC(C4)C5)nc23)cc(CO)n1` [Example 2-63, 5-amino-2-(3-bicyclo[1.1.1]pentanylmethyl)-8-[2-(hydroxymethyl)-6-methyl-4-pyridyl]-7-phenyl-[1,2,4]triazolo[4,3-c]pyrimidin-3-one] as the molecule, how does the Ki [1] read?
Answer: 316 nM

Question: What about the Ki ([2]; read-out: A2A pKi (converted)) of the same molecule?
Answer: 1.26 nM

Question: For `Cc1cc(-c2c(-c3ccccc3)nc(N)n3c(=O)n(CCc4ccc(F)cc4)nc23)cc(C)n1` [Example 1-83, 5-amino-8-(2,6-dimethyl-4-pyridyl)-2-[2-(4-fluorophenyl)ethyl]-7-phenyl-[1,2,4]triazolo[4,3-c]pyrimidin-3-one], which Ki [1] is on record?
Answer: 251 nM

Question: And the Ki ([2]; read-out: A2A pKi (converted))?
Answer: 20 nM

Question: `Cc1cc(-c2c(-c3ccccc3)nc(N)n3c(=O)n(C4Cc5ccc(N)cc5C4)nc23)cc(C)n1` (stereo not drawn) [Example 1-104, 5-amino-2-(5-aminoindan-2-yl)-8-(2,6-dimethyl-4-pyridyl)-7-phenyl-[1,2,4]triazolo[4,3-c]pyrimidin-3-one] was tested. Which Ki [1] did it give?
Answer: 100 nM

Question: And the Ki ([2]; read-out: A2A pKi (converted))?
Answer: 2 nM

Question: Which Ki [1] does the source give for `Cc1cc(-c2c(-c3ccccc3)nc(N)n3c(=O)n(C[C@@H]4CN(C(=O)OC(C)(C)C)CCO4)nc23)cc(C)n1` [Example 2-69, tert-butyl (2S)-2-[[5-amino-8-(2,6-dimethyl-4-pyridyl)-3-oxo-7-phenyl-[1,2,4]triazolo[4,3-c]pyrimidin-2-yl]methyl]morpholine-4-carboxylate] here?
Answer: 398 nM

Question: And the Ki ([2]; read-out: A2A pKi (converted))?
Answer: 6.31 nM

Question: What does the source list for `Cc1cc(-c2c(-c3ccc(F)cc3)nc(N)n3c(=O)n(Cc4ccc(C#N)cn4)nc23)cc(CO)n1` [Example 1-63, 6-[[5-amino-7-(4-fluorophenyl)-8-[2-(hydroxymethyl)-6-methyl-4-pyridyl]-3-oxo-[1,2,4]triazolo[4,3-c]pyrimidin-2-yl]methyl]pyridine-3-carbonitrile]?
Answer: Ki [1]: > 3980 nM; Ki ([2]; read-out: A2A pKi (converted)): 631 nM

Question: For `Cc1cc(-c2c(-c3ccccc3)nc(N)n3c(=O)n(C4CCCN(C)C4)nc23)cc(C)n1` (stereo not drawn) [Example 2-70, 5-amino-8-(2,6-dimethyl-4-pyridyl)-2-(1-methyl-3-piperidyl)-7-phenyl-[1,2,4]triazolo[4,3-c]pyrimidin-3-one], which Ki [1] is on record?
Answer: 501 nM

Question: What about the Ki ([2]; read-out: A2A pKi (converted)) of the same molecule?
Answer: 3.98 nM

Question: Which Ki [1] does the source give for `Cc1cc(-c2c(-c3ccccc3)nc(N)n3c(=O)n([C@H](C)c4ccncc4)nc23)cc(C)n1` [Example 1-26, (R)-5-amino-8-(2,6-dimethyl-4-pyridyl)-7-phenyl-2-[1-(4-pyridyl)ethyl]-[1,2,4]triazolo[4,3-c]pyrimidin-3-one] here?
Answer: 794 nM

Question: What about the Ki ([2]; read-out: A2A pKi (converted)) of the same molecule?
Answer: 15.8 nM

Question: How did the Ki [1] turn out when `Cc1cc(-c2c(-c3ccccc3)nc(N)n3c(=O)n(CC4(Cc5ccccc5)CCNCC4)nc23)cc(C)n1` [Example 1-102, 5-amino-2-[(4-benzyl-4-piperidyl)methyl]-8-(2,6-dimethyl-4-pyridyl)-7-phenyl-[1,2,4]triazolo[4,3-c]pyrimidin-3-one] was run?
Answer: 12.6 nM

Question: And the Ki ([2]; read-out: A2A pKi (converted))?
Answer: 0.501 nM
